Each block holds one molecule with its values, some of them ahead of it.
Legend:
[1] = target: Protein-tyrosine kinase 6 (Homo sapiens, UniProt Q13882); details: at 10 µM
[2] = target: Serine/threonine-protein kinase N1 (Homo sapiens, UniProt Q16512); test: Selectivity interaction (Kinase panel (33PanQinase(R) Activity Assay)) EUB0000877a PKN1
[3] = target: T1, Mitogen-activated protein kinase kinase kinase 19 (Homo sapiens) (UniProt Q56UN5); test: Selectivity interaction (KinomeScan (DiscoverX)) EUB0000595a MAP3K19; details: at 10 µM
T1 sequence (whole entry): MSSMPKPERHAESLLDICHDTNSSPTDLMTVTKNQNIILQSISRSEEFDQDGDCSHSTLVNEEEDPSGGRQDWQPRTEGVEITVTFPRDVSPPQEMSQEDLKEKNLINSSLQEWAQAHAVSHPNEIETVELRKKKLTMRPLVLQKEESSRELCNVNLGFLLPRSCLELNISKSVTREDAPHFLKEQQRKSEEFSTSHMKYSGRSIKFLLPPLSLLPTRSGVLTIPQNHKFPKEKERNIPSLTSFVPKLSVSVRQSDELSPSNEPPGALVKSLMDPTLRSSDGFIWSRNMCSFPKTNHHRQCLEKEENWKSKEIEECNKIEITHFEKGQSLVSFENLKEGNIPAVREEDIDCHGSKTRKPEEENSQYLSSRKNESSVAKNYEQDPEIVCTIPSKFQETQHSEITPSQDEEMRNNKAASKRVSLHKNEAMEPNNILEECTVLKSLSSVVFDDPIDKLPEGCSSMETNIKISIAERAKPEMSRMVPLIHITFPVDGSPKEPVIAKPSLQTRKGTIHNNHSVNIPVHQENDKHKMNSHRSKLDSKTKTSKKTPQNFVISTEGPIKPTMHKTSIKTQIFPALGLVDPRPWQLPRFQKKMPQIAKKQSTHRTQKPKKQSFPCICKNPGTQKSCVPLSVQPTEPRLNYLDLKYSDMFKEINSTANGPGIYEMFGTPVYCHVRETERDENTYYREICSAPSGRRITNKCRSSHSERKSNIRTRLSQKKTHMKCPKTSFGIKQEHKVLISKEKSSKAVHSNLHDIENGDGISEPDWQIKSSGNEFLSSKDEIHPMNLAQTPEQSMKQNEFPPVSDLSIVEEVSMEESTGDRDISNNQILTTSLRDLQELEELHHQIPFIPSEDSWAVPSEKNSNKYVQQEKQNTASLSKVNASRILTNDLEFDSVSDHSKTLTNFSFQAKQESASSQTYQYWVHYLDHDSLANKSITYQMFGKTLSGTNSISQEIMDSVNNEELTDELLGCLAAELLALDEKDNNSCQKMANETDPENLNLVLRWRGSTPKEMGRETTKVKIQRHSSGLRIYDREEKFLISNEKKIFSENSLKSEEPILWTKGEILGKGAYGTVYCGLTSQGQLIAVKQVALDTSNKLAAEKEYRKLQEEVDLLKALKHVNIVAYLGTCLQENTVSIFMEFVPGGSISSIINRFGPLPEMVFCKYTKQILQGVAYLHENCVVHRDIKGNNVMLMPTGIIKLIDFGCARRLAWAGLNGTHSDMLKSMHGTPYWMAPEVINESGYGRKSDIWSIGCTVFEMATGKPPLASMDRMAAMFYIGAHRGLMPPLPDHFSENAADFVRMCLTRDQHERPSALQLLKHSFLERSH

Insulin receptor = Insulin receptor (Homo sapiens, UniProt P06213); test: Selectivity interaction (ProQinase) EUB0000171b INSR
[4] = target: 5'-AMP-activated protein kinase catalytic subunit alpha-1 (Homo sapiens, UniProt Q13131); test: Selectivity interaction (KinomeScan (DiscoverX)) EUB0000655a PRKAA1; details: at 10 µM
[5] = target: T2, NUAK family SNF1-like kinase 2 (Homo sapiens) (UniProt Q9H093); test: Selectivity interaction (KinomeScan (DiscoverX)) EUB0000655a NUAK2; details: at 10 µM
T2 sequence (whole entry): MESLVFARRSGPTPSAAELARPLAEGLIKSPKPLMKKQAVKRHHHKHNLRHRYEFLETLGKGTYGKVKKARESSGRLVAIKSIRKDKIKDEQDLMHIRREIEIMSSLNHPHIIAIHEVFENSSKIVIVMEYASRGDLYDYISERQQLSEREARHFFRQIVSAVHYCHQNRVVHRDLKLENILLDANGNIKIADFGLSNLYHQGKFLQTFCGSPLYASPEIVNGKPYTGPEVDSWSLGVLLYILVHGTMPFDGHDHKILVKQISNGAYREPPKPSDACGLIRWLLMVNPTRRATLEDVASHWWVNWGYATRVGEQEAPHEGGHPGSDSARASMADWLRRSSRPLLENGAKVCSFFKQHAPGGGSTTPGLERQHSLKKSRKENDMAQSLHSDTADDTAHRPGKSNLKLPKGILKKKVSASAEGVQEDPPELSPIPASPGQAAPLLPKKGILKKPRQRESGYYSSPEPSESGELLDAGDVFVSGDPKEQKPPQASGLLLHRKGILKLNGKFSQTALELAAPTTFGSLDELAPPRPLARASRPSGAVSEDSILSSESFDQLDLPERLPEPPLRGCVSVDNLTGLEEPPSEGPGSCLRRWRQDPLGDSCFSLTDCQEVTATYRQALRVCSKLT

[6] = target: G protein-coupled receptor kinase 4 (Homo sapiens) (UniProt P32298); test: Selectivity interaction (KinomeScan (DiscoverX)) EUB0001619a GRK4; details: at 1 µM
[7] = target: T3, Rhodopsin kinase GRK7 (Homo sapiens) (UniProt Q8WTQ7); test: Selectivity interaction (KinomeScan (DiscoverX)) EUB0000666a GRK7; details: at 10 µM
T3 sequence (whole entry): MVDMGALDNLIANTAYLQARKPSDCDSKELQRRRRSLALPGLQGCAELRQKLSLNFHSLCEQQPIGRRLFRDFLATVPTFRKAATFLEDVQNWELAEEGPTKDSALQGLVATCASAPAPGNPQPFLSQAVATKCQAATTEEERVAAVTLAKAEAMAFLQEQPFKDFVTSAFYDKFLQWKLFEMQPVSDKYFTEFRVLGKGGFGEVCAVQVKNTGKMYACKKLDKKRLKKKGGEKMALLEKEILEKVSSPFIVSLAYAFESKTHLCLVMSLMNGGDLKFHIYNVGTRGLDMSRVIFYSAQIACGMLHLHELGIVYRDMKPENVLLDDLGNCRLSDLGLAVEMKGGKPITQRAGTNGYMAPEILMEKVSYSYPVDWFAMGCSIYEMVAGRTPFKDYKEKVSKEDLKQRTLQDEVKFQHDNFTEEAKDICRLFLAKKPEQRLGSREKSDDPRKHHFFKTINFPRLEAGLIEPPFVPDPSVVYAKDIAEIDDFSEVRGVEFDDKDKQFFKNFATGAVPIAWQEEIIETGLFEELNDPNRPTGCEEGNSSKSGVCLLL

[8] = target: RAF proto-oncogene serine/threonine-protein kinase (Homo sapiens) (UniProt P04049); test: Selectivity interaction (KinomeScan (DiscoverX)) EUB0000666a RAF1; details: at 10 µM
Chain of RAF proto-oncogene serine/threonine-protein kinase (Homo sapiens) (P04049 whole entry): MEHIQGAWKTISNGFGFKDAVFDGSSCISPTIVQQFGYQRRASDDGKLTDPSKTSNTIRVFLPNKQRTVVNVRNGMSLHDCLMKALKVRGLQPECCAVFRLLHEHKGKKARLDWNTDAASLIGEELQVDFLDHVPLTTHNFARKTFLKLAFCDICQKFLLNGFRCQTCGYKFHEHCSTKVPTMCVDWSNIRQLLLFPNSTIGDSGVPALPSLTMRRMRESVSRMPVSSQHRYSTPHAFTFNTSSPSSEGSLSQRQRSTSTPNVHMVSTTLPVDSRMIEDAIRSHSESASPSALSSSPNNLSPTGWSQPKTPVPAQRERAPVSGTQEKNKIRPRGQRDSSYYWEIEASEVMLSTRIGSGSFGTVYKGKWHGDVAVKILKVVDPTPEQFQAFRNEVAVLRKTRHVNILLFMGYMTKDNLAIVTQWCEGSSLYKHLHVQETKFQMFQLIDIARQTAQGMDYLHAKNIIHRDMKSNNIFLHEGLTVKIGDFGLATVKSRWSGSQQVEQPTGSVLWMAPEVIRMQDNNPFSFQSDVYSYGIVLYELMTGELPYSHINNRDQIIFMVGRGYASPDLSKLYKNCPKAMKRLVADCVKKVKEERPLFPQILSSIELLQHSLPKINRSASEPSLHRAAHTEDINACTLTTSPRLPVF

Chain of Insulin receptor (P06213 28-758 limits assumed): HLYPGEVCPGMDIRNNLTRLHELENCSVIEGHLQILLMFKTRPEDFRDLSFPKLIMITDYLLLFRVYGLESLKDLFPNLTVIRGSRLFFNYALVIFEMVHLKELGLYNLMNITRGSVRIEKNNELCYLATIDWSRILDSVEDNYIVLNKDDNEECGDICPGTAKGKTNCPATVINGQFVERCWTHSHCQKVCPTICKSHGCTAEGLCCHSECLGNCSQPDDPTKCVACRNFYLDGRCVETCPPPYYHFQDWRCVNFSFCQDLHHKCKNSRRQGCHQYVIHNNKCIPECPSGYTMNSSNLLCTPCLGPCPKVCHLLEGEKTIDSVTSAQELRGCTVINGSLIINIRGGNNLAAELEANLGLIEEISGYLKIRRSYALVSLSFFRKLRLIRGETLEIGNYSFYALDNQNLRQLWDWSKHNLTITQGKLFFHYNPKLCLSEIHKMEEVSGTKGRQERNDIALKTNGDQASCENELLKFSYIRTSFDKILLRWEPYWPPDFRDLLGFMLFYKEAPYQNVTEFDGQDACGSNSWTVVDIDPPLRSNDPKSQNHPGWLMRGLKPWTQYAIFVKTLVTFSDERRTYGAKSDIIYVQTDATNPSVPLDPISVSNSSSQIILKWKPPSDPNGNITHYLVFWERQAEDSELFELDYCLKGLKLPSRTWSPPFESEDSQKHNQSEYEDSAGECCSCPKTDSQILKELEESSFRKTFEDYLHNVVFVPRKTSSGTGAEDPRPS
Chain of Insulin receptor (P06213 763-1382 limits assumed): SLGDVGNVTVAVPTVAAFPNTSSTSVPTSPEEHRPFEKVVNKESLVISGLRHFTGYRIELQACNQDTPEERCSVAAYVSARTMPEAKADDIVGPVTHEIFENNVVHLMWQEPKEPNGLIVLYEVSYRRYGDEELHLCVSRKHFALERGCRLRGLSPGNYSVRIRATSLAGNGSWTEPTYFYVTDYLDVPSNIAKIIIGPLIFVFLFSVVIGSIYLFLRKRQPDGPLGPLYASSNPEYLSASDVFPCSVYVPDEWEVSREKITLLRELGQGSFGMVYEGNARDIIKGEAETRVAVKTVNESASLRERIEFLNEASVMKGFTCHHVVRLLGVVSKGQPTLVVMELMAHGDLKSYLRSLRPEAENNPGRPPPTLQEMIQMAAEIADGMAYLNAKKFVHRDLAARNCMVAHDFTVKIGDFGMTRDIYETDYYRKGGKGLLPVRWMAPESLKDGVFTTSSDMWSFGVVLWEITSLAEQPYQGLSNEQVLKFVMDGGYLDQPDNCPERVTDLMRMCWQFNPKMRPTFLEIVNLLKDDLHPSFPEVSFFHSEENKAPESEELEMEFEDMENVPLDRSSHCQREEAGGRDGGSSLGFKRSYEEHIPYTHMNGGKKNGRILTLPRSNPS
Chain of Serine/threonine-protein kinase N1 (Q16512 whole entry): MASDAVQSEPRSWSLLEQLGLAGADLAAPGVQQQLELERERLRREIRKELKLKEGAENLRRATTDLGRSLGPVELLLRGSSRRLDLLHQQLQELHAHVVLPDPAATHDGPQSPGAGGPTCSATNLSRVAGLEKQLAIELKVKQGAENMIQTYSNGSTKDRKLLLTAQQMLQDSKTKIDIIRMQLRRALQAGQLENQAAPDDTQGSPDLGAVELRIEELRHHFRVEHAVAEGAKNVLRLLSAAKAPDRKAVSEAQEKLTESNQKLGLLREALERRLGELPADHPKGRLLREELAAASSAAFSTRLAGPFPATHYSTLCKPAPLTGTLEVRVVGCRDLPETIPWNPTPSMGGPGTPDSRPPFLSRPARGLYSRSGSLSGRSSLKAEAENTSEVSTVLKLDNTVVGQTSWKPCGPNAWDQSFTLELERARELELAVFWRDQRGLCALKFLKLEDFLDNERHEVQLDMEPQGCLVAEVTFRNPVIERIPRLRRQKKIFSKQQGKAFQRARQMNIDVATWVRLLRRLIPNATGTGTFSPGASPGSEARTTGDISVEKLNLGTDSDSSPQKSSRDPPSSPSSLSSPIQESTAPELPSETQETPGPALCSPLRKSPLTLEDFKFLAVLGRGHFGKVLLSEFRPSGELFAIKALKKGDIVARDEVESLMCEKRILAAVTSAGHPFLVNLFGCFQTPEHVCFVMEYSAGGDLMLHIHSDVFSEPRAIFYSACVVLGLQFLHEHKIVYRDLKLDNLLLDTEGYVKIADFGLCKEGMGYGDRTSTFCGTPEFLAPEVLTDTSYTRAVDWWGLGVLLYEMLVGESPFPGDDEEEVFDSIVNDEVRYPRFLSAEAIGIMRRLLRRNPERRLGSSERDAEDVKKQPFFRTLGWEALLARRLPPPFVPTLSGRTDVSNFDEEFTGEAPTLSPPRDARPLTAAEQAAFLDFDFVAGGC
Chain of Protein-tyrosine kinase 6 (Q13882 whole entry, looked up): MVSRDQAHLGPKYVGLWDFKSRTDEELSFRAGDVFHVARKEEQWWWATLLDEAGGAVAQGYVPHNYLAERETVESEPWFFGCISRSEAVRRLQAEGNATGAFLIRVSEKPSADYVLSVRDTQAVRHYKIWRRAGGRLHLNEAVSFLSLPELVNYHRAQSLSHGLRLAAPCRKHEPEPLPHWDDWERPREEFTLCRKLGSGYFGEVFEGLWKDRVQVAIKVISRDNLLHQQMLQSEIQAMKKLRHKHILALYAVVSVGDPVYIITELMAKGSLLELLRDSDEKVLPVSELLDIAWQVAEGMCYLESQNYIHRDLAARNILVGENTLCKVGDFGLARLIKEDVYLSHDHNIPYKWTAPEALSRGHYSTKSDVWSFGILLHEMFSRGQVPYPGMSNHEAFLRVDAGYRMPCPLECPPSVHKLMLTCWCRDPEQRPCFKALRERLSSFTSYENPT
Chain of G protein-coupled receptor kinase 4 (Homo sapiens) (P32298 whole entry, looked up): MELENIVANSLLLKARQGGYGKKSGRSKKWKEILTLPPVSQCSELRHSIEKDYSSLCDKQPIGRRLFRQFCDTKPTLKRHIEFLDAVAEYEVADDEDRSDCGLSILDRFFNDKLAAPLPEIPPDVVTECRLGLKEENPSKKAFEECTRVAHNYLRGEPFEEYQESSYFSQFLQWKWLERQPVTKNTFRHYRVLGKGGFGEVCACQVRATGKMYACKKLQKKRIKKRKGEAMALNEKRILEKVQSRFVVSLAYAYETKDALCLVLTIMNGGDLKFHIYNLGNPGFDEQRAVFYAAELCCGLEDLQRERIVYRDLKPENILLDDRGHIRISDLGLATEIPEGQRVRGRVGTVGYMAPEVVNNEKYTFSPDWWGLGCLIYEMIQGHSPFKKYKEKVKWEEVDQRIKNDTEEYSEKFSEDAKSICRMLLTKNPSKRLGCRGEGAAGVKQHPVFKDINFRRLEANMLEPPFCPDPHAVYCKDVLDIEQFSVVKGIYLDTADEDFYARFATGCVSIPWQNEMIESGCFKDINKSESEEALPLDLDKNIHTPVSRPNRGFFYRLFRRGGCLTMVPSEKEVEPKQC
Chain of 5'-AMP-activated protein kinase catalytic subunit alpha-1 (Q13131 whole entry, looked up): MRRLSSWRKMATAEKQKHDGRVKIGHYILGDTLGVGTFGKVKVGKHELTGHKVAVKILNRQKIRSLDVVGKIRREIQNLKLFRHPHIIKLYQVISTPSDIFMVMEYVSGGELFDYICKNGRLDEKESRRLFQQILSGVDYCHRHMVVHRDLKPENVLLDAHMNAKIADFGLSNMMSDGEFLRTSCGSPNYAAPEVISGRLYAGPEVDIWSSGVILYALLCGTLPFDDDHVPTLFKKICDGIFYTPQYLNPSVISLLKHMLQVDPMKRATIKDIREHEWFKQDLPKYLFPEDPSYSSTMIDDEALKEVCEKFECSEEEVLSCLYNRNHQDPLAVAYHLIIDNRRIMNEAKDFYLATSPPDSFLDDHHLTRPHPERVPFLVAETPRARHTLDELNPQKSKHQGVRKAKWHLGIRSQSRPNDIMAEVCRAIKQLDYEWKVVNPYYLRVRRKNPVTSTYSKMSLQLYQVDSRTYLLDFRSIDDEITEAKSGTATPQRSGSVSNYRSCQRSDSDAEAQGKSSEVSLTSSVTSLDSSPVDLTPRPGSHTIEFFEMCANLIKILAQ

Structure (SMILES): Cc1cc([C@@H](C)Nc2ccccc2C(=O)O)c2nc(N3CCOCC3)cc(=O)n2c1 [AZD-6482]
% of control [1]: 75%

IC50 [2]: > 10 µM
Structure (SMILES): CCC(=O)N1CC[C@H](Nc2ncnc3c2CN(c2cnc(OC)c(C(F)(F)F)c2)CC3)C1 [LENIOLISIB]

Structure (SMILES): COCC(=O)NC/C=C/c1ccc2ncnc(Nc3ccc(Oc4ccc(C)nc4)c(C)c3)c2c1 [CP-724714]
% of control [3]: 100%

% of control (Insulin receptor; at 1 µM): 91% | % of control (Insulin receptor; at 5 µM): 83%
Structure (SMILES): C=CC(=O)Nc1cccc(C(=O)Nc2ccc(Nc3cc(-c4[nH]c(SC)nc4C)ccn3)cc2)c1

Structure (SMILES): CN(C)CCOc1ccc(-c2nc(-c3ccncc3)c(-c3ccc4c(c3)CC/C4=N\O)[nH]2)cc1
% of control [4]: 100% | % of control [5]: 95%

Structure (SMILES): N#Cc1cccc(-c2c[nH]c3ncnc(N4CCOCC4)c23)c1
% of control [6]: 52%

Structure (SMILES): O=C(NOC[C@H](O)CO)c1ccc(F)c(F)c1Nc1ccc(I)cc1F
% of control [7]: 100% | % of control [8]: 99%
